Assay results published in ChEMBL document CHEMBL4011641, “Prodrugs of Pyrazolo[3,4-d]pyrimidines: From Library Synthesis to Evaluation as Potential Anticancer Agents in an Orthotopic Glioblastoma Model” (J Med Chem, 2017).
≈ marks a conversion by molar mass, not a printed value.

Legend:
Plasma [1] = test: Plasma concentration in BALB/C mouse at 50 mg/kg, ip via bolus administration measured at 24 hrs post dose by UV/LC-MS relative to N-(3-bromophenyl)-1-(2-chloro-2-phenylethyl)-6-(2-morpholinoethylthio)-1H-pyrazolo[3,4-d]pyrimidin-4-amine; format: ADME, organism-based; conditions: in vivo
[2] = MRT in BALB/C mouse at 50 mg/kg, ip administered via bolus dose using DMSO formulation measured at 1 to 24 hrs post dose by UV/LC-MS analysis; format: ADME, organism-based; conditions: in vivo
Liver [3] = test: Drug uptake in BALB/C mouse liver at 50 mg/kg, ip via bolus administration measured at 24 hrs post dose by UV/LC-MS; format: ADME, organism-based; conditions: in vivo
[4] = Cmax in BALB/C mouse at 50 mg/kg, ip administered via bolus dose using DMSO formulation measured at 1 to 24 hrs post dose by UV/LC-MS analysis; format: ADME, organism-based; set-up: dose 50 mg/kg, route intraperitoneal; conditions: in vivo
[5] = target: Tyrosine-protein kinase ABL1 (Homo sapiens, UniProt P00519)
Tyrosine-protein kinase ABL1, sequence (P00519 whole entry): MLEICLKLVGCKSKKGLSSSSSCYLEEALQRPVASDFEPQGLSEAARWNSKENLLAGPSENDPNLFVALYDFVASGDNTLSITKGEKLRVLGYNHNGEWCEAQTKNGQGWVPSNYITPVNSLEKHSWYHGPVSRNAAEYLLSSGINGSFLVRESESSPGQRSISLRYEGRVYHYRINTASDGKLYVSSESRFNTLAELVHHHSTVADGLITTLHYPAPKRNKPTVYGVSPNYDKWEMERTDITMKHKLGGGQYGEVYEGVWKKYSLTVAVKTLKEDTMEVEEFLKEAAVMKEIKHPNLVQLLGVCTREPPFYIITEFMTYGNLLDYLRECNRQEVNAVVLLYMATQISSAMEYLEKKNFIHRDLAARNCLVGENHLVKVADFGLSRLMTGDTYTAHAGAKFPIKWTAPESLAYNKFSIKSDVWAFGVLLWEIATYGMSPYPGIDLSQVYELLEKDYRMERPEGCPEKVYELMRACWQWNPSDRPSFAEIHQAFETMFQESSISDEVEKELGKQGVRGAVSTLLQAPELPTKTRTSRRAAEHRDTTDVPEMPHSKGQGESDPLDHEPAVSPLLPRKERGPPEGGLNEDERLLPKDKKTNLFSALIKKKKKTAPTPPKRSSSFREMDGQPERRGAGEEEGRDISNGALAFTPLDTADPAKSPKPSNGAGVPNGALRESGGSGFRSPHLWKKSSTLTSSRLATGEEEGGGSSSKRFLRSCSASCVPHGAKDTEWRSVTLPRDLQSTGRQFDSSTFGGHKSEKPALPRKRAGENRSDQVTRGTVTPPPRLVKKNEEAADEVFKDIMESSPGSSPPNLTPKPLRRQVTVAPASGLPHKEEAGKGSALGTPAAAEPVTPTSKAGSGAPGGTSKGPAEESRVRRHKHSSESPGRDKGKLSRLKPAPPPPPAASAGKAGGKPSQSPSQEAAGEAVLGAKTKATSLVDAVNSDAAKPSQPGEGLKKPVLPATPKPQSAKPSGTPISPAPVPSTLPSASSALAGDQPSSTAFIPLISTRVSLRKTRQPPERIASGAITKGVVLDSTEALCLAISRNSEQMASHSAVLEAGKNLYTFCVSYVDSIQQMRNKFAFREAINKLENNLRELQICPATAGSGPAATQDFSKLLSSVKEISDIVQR
Description: Inhibition of human wild type full length N-terminal GST/6His-tagged ABL (P118 to S535 residues) expressed in Sf9 cells using abltide as substrate after 5 mins in presence of [gamma-32P]ATP by scintillation counting

[6] = Prodrug activation in human U87 cells assessed as N-(3-bromophenyl)-1-(2-chloro-2-phenylethyl)-6-(2-morpholinoethylthio)-1H-pyrazolo[3,4-d]pyrimidin-4-amine formation at 20 uM up to 25 hrs by UV/LC-MS analysis; format: cell-based; conditions: u-87mg atcc
[7] = Tmax in BALB/C mouse at 50 mg/kg, ip administered via bolus dose using DMSO formulation measured at 1 to 24 hrs post dose by UV/LC-MS analysis; format: ADME, organism-based; conditions: in vivo
[8] = Metabolic stability in mouse liver microsomes assessed as unmetabolized compound remaining at 50 uM after 1 hr in presence of NADPH regenerating system by UV/LC-MS analysis; format: ADME, microsome; conditions: read-out: Stability
[9] = Metabolic stability in human liver microsomes assessed as parent compound remaining at 50 uM after 1 hr in presence of NADPH regenerating system by UV/LC-MS analysis; format: ADME, microsome; conditions: read-out: Stability
cells [10] = conditions: Homo sapiens, U-87 MG, 48 h
Description: Cytotoxicity against human U87 cells assessed as reduction in cell viability after 48 hrs by trypan blue assay

[11] = Drug uptake in cytoplasm of human U87 cells at 20 uM after 2 hrs by UV/LC-MS analysis; format: ADME
Brain [12] = test: Prodrug conversion in BALB/C mouse brain assessed as N-(3-bromophenyl)-1-(2-chloro-2-phenylethyl)-6-(2-morpholinoethylthio)-1H-pyrazolo[3,4-d]pyrimidin-4-amine formation at 50 mg/kg, ip via bolus administration measured at 24 hrs post dose by UV/LC-MS; format: ADME, organism-based; conditions: in vivo
[13] = Prodrug conversion in BALB/C mouse adipose tissue assessed as N-(3-bromophenyl)-1-(2-chloro-2-phenylethyl)-6-(2-morpholinoethylthio)-1H-pyrazolo[3,4-d]pyrimidin-4-amine formation at 50 mg/kg, ip via bolus administration measured at 24 hrs post dose by UV/LC-MS; format: ADME, organism-based; conditions: in vivo
Kidney [14] = test: Drug uptake in BALB/C mouse kidney at 50 mg/kg, ip via bolus administration measured at 24 hrs post dose by UV/LC-MS; format: ADME, organism-based; conditions: in vivo
[15] = Half life in mouse plasma by UV/LC-MS analysis; format: ADME, cell-free
physchem [16] = conditions: PAMPA
Description: Apparent permeability at 500 uM after 5 hrs by Gastro-intestinal-based PAMPA

[17] = Plasma concentration in BALB/C mouse at 50 mg/kg, ip via bolus administration measured at 24 hrs post dose by UV/LC-MS; format: ADME, organism-based
[18] = target: Proto-oncogene tyrosine-protein kinase Src (Homo sapiens, UniProt P12931); test: biochemical
Proto-oncogene tyrosine-protein kinase Src, sequence (P12931 2-536 limits assumed): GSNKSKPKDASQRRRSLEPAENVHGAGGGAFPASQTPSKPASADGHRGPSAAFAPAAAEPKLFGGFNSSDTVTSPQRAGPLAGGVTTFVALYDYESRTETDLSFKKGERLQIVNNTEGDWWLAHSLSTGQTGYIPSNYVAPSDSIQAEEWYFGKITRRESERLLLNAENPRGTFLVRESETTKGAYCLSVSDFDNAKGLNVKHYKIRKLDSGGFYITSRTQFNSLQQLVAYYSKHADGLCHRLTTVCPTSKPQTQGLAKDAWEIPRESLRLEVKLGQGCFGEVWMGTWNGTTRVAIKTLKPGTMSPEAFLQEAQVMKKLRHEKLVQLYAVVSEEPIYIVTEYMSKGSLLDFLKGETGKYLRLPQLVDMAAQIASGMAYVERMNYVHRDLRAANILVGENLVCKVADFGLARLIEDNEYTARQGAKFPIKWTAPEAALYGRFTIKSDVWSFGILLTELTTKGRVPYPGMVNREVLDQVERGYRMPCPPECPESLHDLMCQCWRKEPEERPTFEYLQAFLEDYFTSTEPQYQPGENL
Description: Inhibition of human wild type full length N-terminal GST/6His-tagged SRC (M1 to L536 residues) expressed in baculovirus infected Sf9 cells using src peptide as substrate after 5 mins in presence of [gamma-32P]ATP by scintillation counting method

[19] = Half life in PBS buffer at 100 uM at pH 7.4 by UV/LC-MS analysis; format: physicochemical
[20] = Drug uptake in cytoplasm of human U87 cells at 20 uM after 5 hrs by UV/LC-MS analysis; format: ADME
[21] = Half life in methanol at 100 uM by UV/LC-MS analysis; format: physicochemical
Plasma [22] = test: Prodrug conversion in BALB/C mouse plasma assessed as N-(3-bromophenyl)-1-(2-chloro-2-phenylethyl)-6-(2-morpholinoethylthio)-1H-pyrazolo[3,4-d]pyrimidin-4-amine formation at 50 mg/kg, ip via bolus administration measured at 24 hrs post dose by UV/LC-MS; format: ADME, organism-based; conditions: in vivo
cells [23] = conditions: Homo sapiens, U-87 MG, 24 h
Description: Cytotoxicity against human U87 cells assessed as reduction in cell viability after 24 hrs by trypan blue assay

[24] = AUC (0 to infinity) in BALB/C mouse at 50 mg/kg, ip administered via bolus dose using DMSO formulation measured at 1 to 24 hrs post dose by UV/LC-MS analysis; format: ADME, organism-based; set-up: dose 50 mg/kg, time infinity, route intraperitoneal; conditions: in vivo
[25] = Antitumor activity against human U87 cells xenografted in nude immunodeficient CD1 mouse assessed as mean survival time at 50 mg/kg, po administered every other day (reference value: 30 day); format: functional, U-87MG ATCC
[26] = Drug uptake in BALB/C mouse adipose tissue at 50 mg/kg, ip via bolus administration measured at 24 hrs post dose by UV/LC-MS; format: ADME, organism-based; conditions: in vivo
[27] = AUC (0 to 24 hrs) in BALB/C mouse at 50 mg/kg, ip administered via bolus dose using DMSO formulation measured at 1 to 24 hrs post dose by UV/LC-MS analysis; format: ADME, organism-based; set-up: dose 50 mg/kg, time < 24 hr, route intraperitoneal; conditions: in vivo
Brain [28] = test: Drug uptake in BALB/C mouse brain at 50 mg/kg, ip via bolus administration measured at 24 hrs post dose by UV/LC-MS analysis; format: ADME, organism-based; conditions: in vivo
Liver carboxylesterase 1 = target: T1, Liver carboxylesterase 1 (Homo sapiens, UniProt P23141); test: Drug metabolism assessed as human CES1-mediated compound hydrolysis at 10 to 100 uM after 1 hr by UV/HPLC-MS analysis; format: ADME
T1 sequence (P23141 whole entry): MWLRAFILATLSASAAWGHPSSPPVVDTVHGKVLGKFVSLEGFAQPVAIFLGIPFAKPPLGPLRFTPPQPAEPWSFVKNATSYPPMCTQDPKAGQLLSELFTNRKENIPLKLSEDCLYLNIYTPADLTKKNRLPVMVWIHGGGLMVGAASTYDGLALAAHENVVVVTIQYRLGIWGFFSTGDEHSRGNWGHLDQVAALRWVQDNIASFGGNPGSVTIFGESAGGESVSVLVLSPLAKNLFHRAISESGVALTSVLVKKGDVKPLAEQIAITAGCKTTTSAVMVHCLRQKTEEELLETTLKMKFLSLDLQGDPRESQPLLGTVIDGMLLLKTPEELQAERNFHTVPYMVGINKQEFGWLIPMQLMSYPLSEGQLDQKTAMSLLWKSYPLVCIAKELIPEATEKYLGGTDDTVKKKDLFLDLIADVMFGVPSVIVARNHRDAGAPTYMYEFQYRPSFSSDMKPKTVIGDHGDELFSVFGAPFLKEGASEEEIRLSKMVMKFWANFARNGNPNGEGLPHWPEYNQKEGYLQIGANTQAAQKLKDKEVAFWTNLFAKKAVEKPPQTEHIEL

Kidney [29] = test: Prodrug conversion in BALB/C mouse kidney assessed as N-(3-bromophenyl)-1-(2-chloro-2-phenylethyl)-6-(2-morpholinoethylthio)-1H-pyrazolo[3,4-d]pyrimidin-4-amine formation at 50 mg/kg, ip via bolus administration measured at 24 hrs post dose by UV/LC-MS; format: ADME, organism-based; conditions: in vivo
physchem [30] = conditions: PAMPA; remark: listed apart in the source
Description: Apparent permeability at 500 uM after 5 hrs by Blood-Brain Barrier-based PAMPA

Liver [31] = test: Prodrug conversion in BALB/C mouse liver assessed as N-(3-bromophenyl)-1-(2-chloro-2-phenylethyl)-6-(2-morpholinoethylthio)-1H-pyrazolo[3,4-d]pyrimidin-4-amine formation at 50 mg/kg, ip via bolus administration measured at 24 hrs post dose by UV/LC-MS; format: ADME, organism-based; conditions: in vivo
physchem [32] = conditions: aqueous
Description: Aqueous solubility of compound at 1 mg after 24 hrs by UV/LC-MS analysis

[33] = Plasma clearance in BALB/C mouse at 50 mg/kg, ip administered via bolus dose using DMSO formulation measured at 1 to 24 hrs post dose by UV/LC-MS analysis; format: ADME, organism-based
[34] = Half life in BALB/C mouse at 50 mg/kg, ip administered via bolus dose using DMSO formulation measured at 1 to 24 hrs post dose by UV/LC-MS analysis; format: ADME, organism-based; conditions: in vivo
cells [35] = conditions: Homo sapiens, U-87 MG, 72 h
Description: Cytotoxicity against human U87 cells assessed as reduction in cell viability after 72 hrs by trypan blue assay

CN1CCN(CCOC(=O)N(c2cccc(Br)c2)c2nc(SCCN3CCOCC3)nc3c2cnn3CC(Cl)c2ccccc2)CC1 (stereo unspecified)
fold change (FC) (Plasma [1]): 2 | MRT [2]: 33.3 h | Drug uptake (Liver [3]): 0.8 nmol/g | Cmax [4]: 8.78 µM | Ki [5]: > 100 µM | Drug metabolism [6]: Metabolite_Detected | Tmax [7]: 1 h | remaining at 1 h, 50 µM [8]: 93.1% | remaining at 1 h, 50 µM [9]: 93.6% | IC50 (cells [10]): 5.2 µM | Drug uptake [11]: Active | Drug metabolism (Brain [12]): 5.2 nmol/g | Drug metabolism [13]: 20.5 nmol/g | Drug uptake (Kidney [14]): 6.8 nmol/g | half-life [15]: 1.16 h | Papp at 5 h, 500 µM (physchem [16]): 2.13 ×10⁻⁶ cm/s | concentration at 24 h [17]: 5.4 µM | Ki [18]: > 100 µM | half-life at 100 µM [19]: > 48 h | Drug uptake [20]: Active | half-life at 100 µM [21]: > 48 h | Drug metabolism (Plasma [22]): 3.3 nmol/mL | IC50 (cells [23]): 7.5 µM | AUC(0-inf) [24]: 265 µM·h | MST [25]: 49 days | Drug uptake [26]: 1.8 nmol/g | AUC(0-t) at 24 h [27]: 136 µM·h | Drug uptake (Brain [28]): 6.4 nmol/g | Drug metabolism (Liver carboxylesterase 1): Metabolite_Notdetected | Drug metabolism (Kidney [29]): 2.6 nmol/g | Papp at 5 h, 500 µM (physchem [30]): 2.91 ×10⁻⁶ cm/s | Drug metabolism (Liver [31]): 3.6 nmol/g | solubility at 24 h (physchem [32]): 8.7 µg/mL (≈ 11.7 µM) | CL/F [33]: 0.14 mL/min | half-life [34]: 23.8 h | IC50 (cells [35]): 1.8 µM
